For assay [1], the system named is colon carcinoma 26. Description: Antitumor effect test using colon carcinoma 26 (subcutaneous tumor fragment implant, tumor weight on day 10). Conditions: oral, once a day for 7 days. In kind it is in vivo, mouse. The protocol: The antitumor composition according to the invention was further tested for antitumor effect using colon carcinoma 26. Thus, each female F1 mouse [BALB/c x DBA/2] weighing 21 ± 1 g was subcutaneously implanted with a tumor fragment (about 2 mm3) into the axillary site using a trocar. Starting from 24 hours after tumor implantation, the above- mentioned compound 4 and uracil were orally administered combinedly on the proportion given below in Table 2 once a day for 7 days, and the antitumor effect was compared with that attained by single administration of either of them. The test agent was suspended in a 0.5% solution of gum arabic in physiological saline daily just before administration such that the dose amounted to 0.2 ml/20 g body weight. Ten days after tumor implantation, the tumor was excised and weighed, and the average tumor weight ratio (T/C %) between the dosed group (T, group of 5 animals) and the control group (C, group of 20 animals) was calculated. The daily dose was expressed in terms of number of moles per kilogram of body weight (mM/kg).

In assay [2] the test system is Lewis lung carcinoma. Description: Antitumor effect test using Lewis lung carcinoma (subcutaneous tumor fragment implant, tumor weight on day 10). The assay is classed as in vivo, mouse. Conditions: oral, once daily for 7 days. The protocol: The antitumor composition according to the invention was tested for antitumor effect using Lewis lung carcinoma. Thus, each female Fl mouse [C57BL/6 x DBA/2] weighing 18 ± 1 .g was implanted with a tumor fragment about 2 mm^3 in volume subcutaneously into the axillary site using a trocar. Starting from 24 hours after tumor implantation, the above- mentioned compound 4 and uracil were orally administered combinedly in the proportion given below in Table 1 once daily for 7 days, and the antitumor effect was compared with that attained when each of them was administered singly. The sample agent was suspended in a 0.5% solution of gum arabic in physiological saline just before daily administration such that the dose amounted to 0.2 ml/20 g body weight. Ten days after tumor implantation, the tumor was excised and weighed, and the average tumor weight ratio (T/C %) between the dosed group (T, group of 5 animals) and the control group (C, group of 10 animals) was calculated. The daily dose was expressed in terms of number of moles per kilogram of body weight (mM/kg).

The mark [3] stands for this setting: compound 4 0.1 mM/kg alone, tumor excised 10 days after implantation.
[4] abbreviates: compound 4 0.2 mM/kg alone, day 10.
The mark [5] stands for this setting: compound 4 0.4 mM/kg alone, day 10.
[6] abbreviates: compound 4 0.8 mM/kg alone, day 10.

As a reminder, the T/C is the ratio of treated to control. In the case of `CC(C)COC(=O)C1(F)C(=O)NC(=O)NC1O/N=C/c1ccco1` (centres unmarked) [compound 4, Isobutyl 5-fluoro-4-[(E)-furfurylideneaminooxy]-2,6-dioxohexahydropyrimidine-5-carboxylate], the T/C in assay [1] (setting [3]) is given as 96%; in assay [1] (setting [4]) it was 29%; in assay [1] (setting [5]) it was 1%; in assay [1] (setting [6]), 0%; in assay [2] (setting [3]) it was 54%; in assay [2] (setting [4]), 42%. Also, the T/C in assay [2] (setting [5]) came out at 31%; in assay [2] (setting [6]) it was 19%. In addition, the Tumor weight in assay [1] (setting [3]) is 190 mg; in assay [1] (setting [4]), 57 mg; in assay [1] (setting [5]), 2 mg; in assay [1] (setting [6]) it was 0 mg; in assay [2] (setting [3]), 138 mg; in assay [2] (setting [4]) it was 107 mg. Moreover, the Tumor weight in assay [2] (setting [5]) is reported as 80 mg; in assay [2] (setting [6]) it was 49 mg.
On to `O=c1cc[nH]c(=O)[nH]1` [uracil], for which the T/C in assay [1] (uracil 0.4 mM/kg alone, day 10) stood at 113%; in assay [1] (uracil 0.8 mM/kg alone, day 10), 87%; in assay [1] (uracil 1.6 mM/kg alone, day 10) it was 86%; in assay [1] (uracil 3.2 mM/kg alone, day 10) it was 98%; in assay [2] (uracil 0.4 mM/kg alone, day 10), 125%; in assay [2] (uracil 0.8 mM/kg alone, day 10) it was 224%. Further, the T/C in assay [2] (uracil 1.6 mM/kg alone, day 10) was found to be 197%; in assay [2] (uracil 3.2 mM/kg alone, day 10), 169%. Besides, the Tumor weight in assay [1] (uracil 0.4 mM/kg alone, day 10) stood at 223 mg; in assay [1] (uracil 0.8 mM/kg alone, day 10) it was 173 mg; in assay [1] (uracil 1.6 mM/kg alone, day 10), 170 mg; in assay [1] (uracil 3.2 mM/kg alone, day 10), 194 mg; in assay [2] (uracil 0.4 mM/kg alone, day 10), 319 mg; in assay [2] (uracil 0.8 mM/kg alone, day 10) it was 572 mg. For the same molecule, the Tumor weight was 502 mg in assay [2] (uracil 1.6 mM/kg alone, day 10) and 432 mg in assay [2] (uracil 3.2 mM/kg alone, day 10).

Values taken from EP0171942A1, “Antitumor composition” (Takeda Chemical Industries, Ltd., priority 1984, dated 1986).
